Measurements: ChEMBL document CHEMBL1157539, “Thousands of chemical starting points for antimalarial lead identification” (Nature, 2010)

System: Plasmodium falciparum
Assay: GSK_TCMDC: Inhibition of Plasmodium falciparum 3D7 in whole erythrocytes, using parasite LDH activity as an index of growth.
Assay type: functional, organism-based
Settings: Plasmodium falciparum, 3D7

SMILES	XC50 [nM]
COc1cccc2c(N/N=C/c3cccc([N+](=O)[O-])c3)ccnc12	748
CN1CCC(N(Cc2ccc(-c3ccc(C(F)(F)F)cc3)cc2)C(=O)Cn2c(SCc3cccc(F)c3F)cc(=O)c3c2CCC3)CC1	161
c1ccc2c(Nc3ccc(Cc4ccc(Nc5c6ccccc6nc6ccccc56)cc4)cc3)c3ccccc3nc2c1	162
Cc1cc(N[C@@H](CC(C)C)C(=O)NCc2cccs2)nc(NCCc2cccs2)n1	1020
CC(C)(C)c1ccc(CN2CCC(CNC(=O)c3cc(-c4ccccc4C(F)(F)F)cs3)C2)cc1 (centres undefined)	1240
COc1cc2nc(NCCc3ccccc3)nc(NCc3cnn(C)c3C)c2cc1OC	711
CCC(CC)(CCC#N)CN(C[C@@H](O)[C@H](Cc1ccccc1)NC(=O)OC(C)(C)C)S(=O)(=O)c1ccc(OC)cc1	1040
COC(C(=O)OCCC1CCCN1C)(c1ccccc1)C1CCCCC1 (centres undefined)	711
CCCc1cnc2nc(N)nc(N)c2c1C	1120
Cc1nc(-c2cccc(C(=O)Nc3cnc4ccccc4c3)c2)no1	1160
O=C(Nc1cccc(-c2cccc(-c3nc4ccccc4[nH]3)c2)c1)c1cccnc1	646
N#Cc1ccc(N(CC(=O)NCCc2ccc(F)cc2)CC2CC2)c2ccccc12	932
COc1ccc(Nc2nccc(N3CCC(NC(=O)C(C)c4ccc(Cl)cc4)C3)n2)cc1 (centres undefined)	1010
CC(C)C[C@@H](C(=O)N[C@H](C(=O)Nc1nccs1)C(C)(C)C)[C@H](CCC(F)(F)F)N(O)C=O	598
COc1ccc(OC)c(NC(=O)c2c(-c3c(F)cccc3Cl)noc2C)c1	701
COc1ccccc1NC(=O)Nc1cccc(-c2ccc(-c3nc4cccc(C)c4[nH]3)s2)c1	579
CCCN(CCCCNC(=O)c1ccc(-c2cccnc2)cc1)C1CCc2c(O)cccc2C1 (centres undefined)	1120
CCCCN(CCCC)CCCN(CCCN(CCCC)CCCC)c1cc(C)nc(Nc2ccc(Br)cc2)n1	131
CC1CCCN1Cc1cccc(-c2ccc(C(=O)NCCOc3ccccc3)s2)c1 (centres undefined)	925
C[C@@H](C(N)=O)N1CCCCC1c1ccc(OCc2cccc(F)c2)cc1 (some centres undefined)	989
O=C(Nc1ccc(-c2nc3ccccc3[nH]2)cc1)c1ccc([N+](=O)[O-])s1	252
O=C(/C=C/c1ccc(Cl)c(Cl)c1)NCCCCCN1CCC(NC(=O)NCCc2ccccc2)CC1	722
O=C(NC1CCCCC1)N(Cc1cccc(-c2ccc(CNCCc3ccccc3)cc2)c1)C1CCN(Cc2ccccc2)CC1	650

SMILES	XC50 [nM]
O=C(/C=C/c1ccc(Cl)cc1)NCCCCCN1CCC(C(=O)Nc2cccc(Cl)c2)CC1	853
O=S(=O)(Nc1ccc(CCN2CCCCC2CCN2CCCC2)cc1)c1cccc2cccnc12 (centres undefined)	1300
Cc1nc(-c2cccc3c(NC(=O)Nc4ccc5nccc(N6CCN(C)CC6)c5c4)cccc23)no1	235
COc1cc2nc(NCCc3ccccc3)nc(NC(C)c3ccccc3)c2cc1OC (centres undefined)	281
COc1ccc(CNc2ncc(-c3ccsc3)c(-c3nccs3)n2)cc1OC	89
Cc1ccc(Nc2nccc(NCC(O)c3cccc(F)c3)n2)cc1 (centres undefined)	675
COc1ccc(CNCc2ccc(F)cc2)cc1-c1cccc(S(=O)(=O)NCCN2CCCC2)c1	805
Cc1cccc(NC(=O)NC2CCN(CCCCCNC(=O)/C=C/c3ccc(Cl)c(Cl)c3)CC2)c1	753
COc1ccccc1C1CCN(Cc2csc(NC(=O)c3ccc(-c4ccc(C(F)(F)F)cc4)cc3)n2)CC1	954
COc1cccc(CNC[C@@H](O)[C@H](Cc2ccccc2)NC(=O)c2cc(NC(C)C)cc(N3CCCCS3(=O)=O)c2)c1	784
CCc1sc(N2CCN(C)CC2)nc1C(=O)NCCc1ccc(Cl)c(Cl)c1	1180
CC(C)c1cccc(OCC2CCN(c3ncc(C(=O)NC4CC4)cc3Cl)CC2)c1	681
CC1(C)N=C(N)N=C(N)N1OCc1cc2ccccc2cc1CON1C(N)=NC(N)=NC1(C)C	126
COc1ccc(CN2CCCN(Cc3cccc(NC(=O)c4ccc5ccccc5c4)c3)CC2)cc1	1000
O=C(O)C[C@H](NC(=O)c1cc(-c2ccc3c(c2)OCO3)no1)C(=O)O.O=C(O)C[C@H](NC(=O)c1conc1-c1ccc2c(c1)OCO2)C(=O)O	194
Nc1ncc(-c2ccc(NC(=O)Nc3cc(C(F)(F)F)ccc3F)cc2)c(N)n1	719
CC(CN1CCN(CC(c2ccc(F)cc2)N2CCN(C)CC2)CC1)C(=O)c1ccc(O)cc1 (centres undefined)	672
CC(C)CCCC(C)(C)NC[C@@H](O)[C@H](Cc1ccccc1)NC(=O)c1cccc(OCC2CC2)c1	843
Nc1nc(N)c2c(Cl)c(CNc3cccc(C(=O)O)c3)ccc2n1	8.88
CS(=O)(=O)c1cccc(-c2cnc3[nH]cc(-c4ccc(CCC(=O)O)cc4)c3c2)c1	634
CCOc1ccc2c(=NN=Cc3cccc(OC)c3)cc(C)[nH]c2c1	123
COc1ccc(C(=O)Nc2ccc3nc(N4CCCCC4)cc(C)c3c2)cc1[N+](=O)[O-]	779
S=C(NCCN1CCOCC1)Nc1ccccc1	1020

SMILES	XC50 [nM]
Fc1cccc(COc2ccc(Nc3ncnc4sc(C#CCNC5CCC5)cc34)cc2Cl)c1	875
COc1ccc(S(=O)(=O)Nc2cc(C)cc(Br)c2OC)cc1N1CCN(C(=O)C(Cl)(Cl)Cl)CC1	871
Cc1cccc2nc(-c3ccc(-c4cccc(CNCc5ccccc5)c4)cc3)[nH]c12	246
CN(C)c1cccc(CCNCCc2c[nH]c3ccc(Cl)cc23)c1	436
CN(CCCCNC(=O)c1ccc(-c2ccccc2)cc1)C1CCc2c(O)cccc2C1 (centres undefined)	724
O=C(Nc1cccc(-c2ccc(-c3nc4cc(F)ccc4[nH]3)s2)c1)c1ccncc1	703
O=C(Nc1ccccc1)c1ccc(N2CCC(COc3cccc(C(F)(F)F)c3)CC2)nc1	298
Cc1cc(-c2ccc(NC(=O)Nc3ccc4nccc(N5CCN(C)CC5)c4c3)cc2C)cc(C)n1	153
CN1CCN(c2ccnc3ccc(NC(=O)Cc4ccc(-c5ccncc5)c5ccccc45)cc23)CC1	203
O=C(CNCC1CCCCC1)Nc1cc(C(F)(F)F)ccc1Cl	982
COc1ccc2nccc([C@@H](O)CN3CCC(NC(=O)C(c4cc5ccccc5o4)N4CCN(Cc5ccccc5)CC4)CC3)c2c1 (some centres undefined)	163
O=C(NCCCCN1CCC(c2ccc3c(c2OCCO)CCCC3)CC1)c1ccc2oc(-c3ccc(C(F)(F)F)cc3)cc2c1	340
O=C(/C=C/c1ccc(Cl)c(Cl)c1)N1CCC(NCc2c[nH]c3ccccc23)CC1	1070
CC1(C)NC(N)=NC(=N)N1OCCCNC(=O)c1ccc(C(=O)NCCCON2C(=N)N=C(N)NC2(C)C)cc1	21.6
COc1cc(Cc2cnc(N)nc2N)cc(OC)c1OCCCCCN1C(=O)c2ccccc2C1=O	618
CCCCCNc1ccnc2cc(Cl)ccc12	509
CC(C)c1ccc(NC(=O)c2ccc(CN3CCCN(CC4CCCCC4)CC3)cc2)cc1	615
Fc1ccc(COc2ccc(Nc3ncnc4ccc(I)cc34)cc2Cl)cc1	1180
O=C(Nc1ccc(Cl)c(Cl)c1)N1CCc2cc3nccc(N4CCN5CCC[C@H]5C4)c3cc21	628
CN1CCCN(Cc2ccc(-c3ccc(NC(=O)c4cccc(Cl)c4)cc3)cc2)CC1	859
O=S(=O)(Nc1cccc(CCN2CCC(N3CCCCC3)CC2)c1)c1cccc2ccccc12	937
Cc1noc(C)c1-c1cccc(CNCc2ccc(-c3cccc(-c4nc5cccc(C)c5[nH]4)c3)cc2)c1	215
COc1ccc(NC(=O)c2csc(-c3cc(NC(=O)c4ccnc(N5CCCC5)c4)ccc3C)c2)cc1N1CCN(C)CC1	660
